Assays:
[1] = test system: ENR+CD organoids (ISC to Paneth cell differentiation); test: Primary screen: basal (non-stimulated) lysozyme secretion LYZ.NS, 2.5-D 384-well ENR+CD organoid differentiation; format: cell-based, mouse
Source text: (§1) High-throughput screening.

[2] = test system: ENR+CD organoids (ISC to Paneth cell differentiation); test: Primary screen: CCh-stimulated lysozyme secretion LYZ.S, 2.5-D 384-well ENR+CD organoid differentiation; format: cell-based, mouse; conditions: primary screen
Source text: as §1

ENR+CD organoids = test: Primary screen: ATP (CellTiter-Glo 3D, CTG) cell number/viability, 2.5-D 384-well ENR+CD organoids;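 further: compounds given at plating and again on day 3 over a 6-day differentiation from ENR+CV stem-cell-enriched precursors, ATP measured on day 6, plate median as control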
[3] = primary screen, standard z score, dose 0.08 uM
[4] = primary screen, standard z score, dose 0.40 uM
[5] = primary screen, standard z score, dose 2.00 uM
[6] = primary screen, standard z score, dose 10.00 uM
[7] = primary screen, dose 0.08 uM, standard z score
[8] = primary screen, dose 0.40 uM, standard z score
[9] = primary screen, dose 2.00 uM, standard z score
[10] = primary screen, dose 10.00 uM, standard z score
[11] = primary screen; dose 0.08 uM; FC vs plate median
[12] = primary screen; dose 0.40 uM; FC vs plate median
[13] = primary screen; dose 2.00 uM; FC vs plate median
[14] = primary screen; dose 10.00 uM; FC vs plate median

Structure (SMILES): C=C[C@@]1(C)CC(=O)[C@]2(O)[C@@]3(C)[C@@H](O)CCC(C)(C)[C@@H]3[C@H](O)[C@H](OC(C)=O)[C@@]2(C)O1 [Forskolin]
- Dose.FC.LYZ.NS ([1]; primary screen, dose 0.08 uM): −0.007 log2 fold change
- Dose.FC.LYZ.NS ([1]; primary screen, dose 0.40 uM): 0.159 log2 fold change
- Dose.FC.LYZ.NS ([1]; primary screen, dose 2.00 uM): 0.191 log2 fold change
- Dose.FC.LYZ.NS ([1]; primary screen, dose 10.00 uM): 0.219 log2 fold change
- Z.LYZ.NS [1, 3]: −0.058
- Z.LYZ.NS [1, 4]: 1.381
- Z.LYZ.NS [1, 5]: 1.661
- Z.LYZ.NS [1, 6]: 1.905
- Dose.FC.LYZ.S ([2]; dose 0.08 uM): −0.004 log2 fold change
- Dose.FC.LYZ.S ([2]; dose 0.40 uM): 0.237 log2 fold change
- Dose.FC.LYZ.S ([2]; dose 2.00 uM): 0.102 log2 fold change
- Dose.FC.LYZ.S ([2]; dose 10.00 uM): 0.128 log2 fold change
- Dose.FC.CTG (ENR+CD organoids; primary screen, dose 0.08 uM): −0.213 log2 fold change
- Dose.FC.CTG (ENR+CD organoids; primary screen, dose 0.40 uM): −0.175 log2 fold change
- Dose.FC.CTG (ENR+CD organoids; primary screen, dose 2.00 uM): −0.330 log2 fold change
- Dose.FC.CTG (ENR+CD organoids; primary screen, dose 10.00 uM): −0.119 log2 fold change

Structure (SMILES): OC[C@H]1O[C@@H](c2ccc(Cl)c(Cc3ccc(O[C@H]4CCOC4)cc3)c2)[C@H](O)[C@@H](O)[C@@H]1O [Empagliflozin (BI 10773)]
- Dose.FC.LYZ.NS ([1]; primary screen, dose 0.08 uM): −0.006 log2 fold change
- Dose.FC.LYZ.NS ([1]; primary screen, dose 0.40 uM): −0.034 log2 fold change
- Dose.FC.LYZ.NS ([1]; primary screen, dose 2.00 uM): −0.009 log2 fold change
- Dose.FC.LYZ.NS ([1]; primary screen, dose 10.00 uM): 0.017 log2 fold change
- Z.LYZ.NS [1, 3]: −0.052
- Z.LYZ.NS [1, 4]: −0.294
- Z.LYZ.NS [1, 5]: −0.081
- Z.LYZ.NS [1, 6]: 0.144
- Dose.FC.LYZ.S ([2]; dose 0.08 uM): −0.051 log2 fold change
- Dose.FC.LYZ.S ([2]; dose 0.40 uM): −0.055 log2 fold change
- Dose.FC.LYZ.S ([2]; dose 2.00 uM): −0.103 log2 fold change
- Dose.FC.LYZ.S ([2]; dose 10.00 uM): −0.022 log2 fold change
- Dose.FC.CTG (ENR+CD organoids; primary screen, dose 0.08 uM): −0.296 log2 fold change
- Dose.FC.CTG (ENR+CD organoids; primary screen, dose 0.40 uM): −0.075 log2 fold change
- Dose.FC.CTG (ENR+CD organoids; primary screen, dose 2.00 uM): −0.192 log2 fold change
- Dose.FC.CTG (ENR+CD organoids; primary screen, dose 10.00 uM): −0.134 log2 fold change
- Z.CTG (ENR+CD organoids; [3]): −0.707
- Z.CTG (ENR+CD organoids; [4]): −0.178
- Z.CTG (ENR+CD organoids; [5]): −0.458
- Z.CTG (ENR+CD organoids; [6]): −0.320

Structure (SMILES): Cc1[nH]c2ccccc2c1CCNCc1ccc(/C=C/C(=O)NO)cc1 [Panobinostat (LBH589)]
- Z.LYZ.NS [1, 7]: 0.014
- Z.LYZ.NS [1, 8]: −0.232
- Z.LYZ.NS [1, 9]: −1.329
- Z.LYZ.NS [1, 10]: −1.891
- Dose.FC.LYZ.NS [1, 11]: 0.002 log2 fold change
- Dose.FC.LYZ.NS [1, 12]: −0.027 log2 fold change
- Dose.FC.LYZ.NS [1, 13]: −0.153 log2 fold change
- Dose.FC.LYZ.NS [1, 14]: −0.217 log2 fold change
- Dose.FC.LYZ.S ([2]; dose 0.08 uM, FC vs plate median): −0.034 log2 fold change
- Dose.FC.LYZ.S ([2]; dose 0.40 uM, FC vs plate median): −0.042 log2 fold change
- Dose.FC.LYZ.S ([2]; dose 2.00 uM, FC vs plate median): −0.285 log2 fold change
- Dose.FC.LYZ.S ([2]; dose 10.00 uM, FC vs plate median): −0.320 log2 fold change
- Z.CTG (ENR+CD organoids; [7]): 0.706
- Z.CTG (ENR+CD organoids; [8]): 0.506
- Z.CTG (ENR+CD organoids; [9]): −1.283
- Z.CTG (ENR+CD organoids; [10]): −2.395
- Dose.FC.CTG (ENR+CD organoids; [11]): 0.295 log2 fold change
- Dose.FC.CTG (ENR+CD organoids; [12]): 0.212 log2 fold change
- Dose.FC.CTG (ENR+CD organoids; [13]): −0.537 log2 fold change
- Dose.FC.CTG (ENR+CD organoids; [14]): −1.003 log2 fold change

Structure (SMILES): O=C(NCc1ccccc1)c1csc(Nc2ccncn2)n1 [Thiazovivin]
- Dose.FC.LYZ.NS ([1]; primary screen, dose 0.08 uM): 0.090 log2 fold change
- Z.LYZ.NS (standard z score) ([1]; primary screen, dose 0.08 uM): 0.780
- Dose.FC.LYZ.NS ([1]; primary screen, dose 0.40 uM): 0.070 log2 fold change
- Z.LYZ.NS (standard z score) ([1]; primary screen, dose 0.40 uM): 0.611
- Dose.FC.LYZ.NS ([1]; primary screen, dose 2.00 uM): 0.024 log2 fold change
- Z.LYZ.NS (standard z score) ([1]; primary screen, dose 2.00 uM): 0.205
- Dose.FC.LYZ.NS ([1]; primary screen, dose 10.00 uM): −0.069 log2 fold change
- Z.LYZ.NS (standard z score) ([1]; primary screen, dose 10.00 uM): −0.605
- Dose.FC.LYZ.S ([2]; dose 0.08 uM): 0.142 log2 fold change
- Dose.FC.LYZ.S ([2]; dose 0.40 uM): 0.060 log2 fold change
- Dose.FC.LYZ.S ([2]; dose 2.00 uM): 0.064 log2 fold change
- Dose.FC.LYZ.S ([2]; dose 10.00 uM): 0.037 log2 fold change
- Dose.FC.CTG (ENR+CD organoids; primary screen, dose 0.08 uM): 0.141 log2 fold change
- Z.CTG (standard z score) (ENR+CD organoids; primary screen, dose 0.08 uM): 0.337
- Dose.FC.CTG (ENR+CD organoids; primary screen, dose 0.40 uM): 0.113 log2 fold change
- Z.CTG (standard z score) (ENR+CD organoids; primary screen, dose 0.40 uM): 0.271
- Dose.FC.CTG (ENR+CD organoids; primary screen, dose 2.00 uM): 0.312 log2 fold change
- Z.CTG (standard z score) (ENR+CD organoids; primary screen, dose 2.00 uM): 0.746
- Dose.FC.CTG (ENR+CD organoids; primary screen, dose 10.00 uM): 0.189 log2 fold change
- Z.CTG (standard z score) (ENR+CD organoids; primary screen, dose 10.00 uM): 0.451

— patent US20220323406A1, “METHODS AND COMPOSITIONS FOR DIFFERENTIATING STEM CELLS” (Massachusetts Institute of Technology, priority 2019, published 2022)
